Assay results as given in PubChem BioAssay AID1963437 (Molecular Pharmacology Branch, DTP, NCI, 2024).

Tested on: OVCAR-8 complex spheroid, growth inhibition
Assay: Anticancer human tumor OVCAR-8 cell line growth inhibition [Asc];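 also: spheroids exposed to agents for 7 days before readout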;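 as to viability, T/C: percent viability relative to DMSO vehicle wells taken as 100%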
Details: for IC50: curve of first compound; for viability, T/C: stronger effect = lower value
Procedure, shortened: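 Tumor cells were grown as complex spheroids with human endothelial cells (HUVEC) and human mesenchymal stem cells as stroma. Agents were tested alone and in combination, in half-log steps down from the clinical Cmax, or from 10 microM where Cmax was unknown.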

[1] = second compound 0.0316 µM, first compound 0.0316 µM
[2] = second compound 0.0316 µM, first compound 0.1 µM
[3] = second compound 0.0316 µM, first compound 0.316 µM
[4] = second compound 0.0316 µM, first compound 1 µM
[5] = second compound 0.0316 µM, first compound 3.16 µM
[6] = second compound 0.0316 µM, first compound 10 µM
[7] = second compound 0.1 µM, first compound 0.0316 µM
[8] = second compound 0.1 µM, first compound 0.1 µM
[9] = second compound 0.1 µM, first compound 0.316 µM
[10] = second compound 0.1 µM, first compound 1 µM
[11] = second compound 0.1 µM, first compound 3.16 µM
[12] = second compound 0.1 µM, first compound 10 µM
[13] = second compound 0.316 µM, first compound 0.0316 µM
[14] = second compound 0.316 µM, first compound 0.1 µM
[15] = second compound 0.316 µM, first compound 0.316 µM
[16] = second compound 0.316 µM, first compound 1 µM
[17] = second compound 0.316 µM, first compound 3.16 µM
[18] = second compound 0.316 µM, first compound 10 µM
[19] = second compound 1 µM, first compound 0.0316 µM
[20] = second compound 1 µM, first compound 0.1 µM
[21] = second compound 1 µM, first compound 0.316 µM
[22] = second compound 1 µM, first compound 1 µM
[23] = second compound 1 µM, first compound 3.16 µM
[24] = second compound 1 µM, first compound 10 µM
[25] = second compound 3.16 µM, first compound 0.0316 µM
[26] = second compound 3.16 µM, first compound 0.1 µM
[27] = second compound 3.16 µM, first compound 0.316 µM
[28] = second compound 3.16 µM, first compound 1 µM
[29] = second compound 3.16 µM, first compound 3.16 µM
[30] = second compound 3.16 µM, first compound 10 µM
[31] = second compound 10 µM, first compound 0.0316 µM
[32] = second compound 10 µM, first compound 0.1 µM
[33] = second compound 10 µM, first compound 0.316 µM
[34] = second compound 10 µM, first compound 1 µM
[35] = second compound 10 µM, first compound 3.16 µM
[36] = second compound 10 µM, first compound 10 µM

For `C=C(F)C(=O)N1CCN(c2nc(OCC3CCCN3C)nc3c2CCN(c2cccc4cccc(Cl)c24)C3)CC1CC#N` (stereo unspecified) + Cc1c(S(C)(=O)=O)c(-c2cc(F)cc(N3CCN(c4ccc(NS(=O)(=O)c5ccc(NC(CCN6CCC(C(=O)OCCCP(=O)(O)O)CC6)CSc6ccccc6)c(S(=O)(=O)C(F)(F)F)c5)cc4)CC3)c2)c(-c2ccc(Cl)cc2)n1C(C)C, the IC50 (second compound 0.0316 µM) was 2330 nM, the IC50 (second compound 0.1 µM) was 2240 nM and the IC50 (second compound 0.316 µM) was 2320 nM. It also gave an IC50 (second compound 1 µM) of 2510 nM, an IC50 (second compound 3.16 µM) of 2250 nM and an IC50 (second compound 10 µM) of 2150 nM. The viability, T/C [1] was 102%, the viability, T/C [2] was 92.4% and the viability, T/C [3] was 91.8%. The viability, T/C [4] was 102%, the viability, T/C [5] was 33% and the viability, T/C [6] was 2.02%. It also gave a viability, T/C [7] of 95.6%, a viability, T/C [8] of 94.3% and a viability, T/C [9] of 97.7%. The viability, T/C [10] was 111%, the viability, T/C [11] was 28.5% and the viability, T/C [12] was 0.39%. For the same molecule, the viability, T/C [13] was 90.3%, the viability, T/C [14] was 99.5% and the viability, T/C [15] was 98.7%. For the same molecule, the viability, T/C [16] was 113%, the viability, T/C [17] was 31.5% and the viability, T/C [18] was 0.28%. The viability, T/C [19] was 92.1%, the viability, T/C [20] was 88.2% and the viability, T/C [21] was 96%. For the same molecule, the viability, T/C [22] was 114%, the viability, T/C [23] was 38.1% and the viability, T/C [24] was 1.17%. For the same molecule, the viability, T/C [25] was 102%, the viability, T/C [26] was 111% and the viability, T/C [27] was 93.2%. The viability, T/C [28] was 128%, the viability, T/C [29] was 25.5% and the viability, T/C [30] was 0.35%. The viability, T/C [31] was 96.4%, the viability, T/C [32] was 73.3% and the viability, T/C [33] was 92.4%. It also gave a viability, T/C [34] of 121%, a viability, T/C [35] of 26.9% and a viability, T/C [36] of 1.06%.
In the case of `C=CC(=O)N1CCN(c2nc(=O)n(-c3c(C)ccnc3C(C)C)c3nc(-c4c(O)cccc4F)c(F)cc23)C(C)C1` (stereo unspecified) + Cc1c(S(C)(=O)=O)c(-c2cc(F)cc(N3CCN(c4ccc(NS(=O)(=O)c5ccc(NC(CCN6CCC(C(=O)OCCCP(=O)(O)O)CC6)CSc6ccccc6)c(S(=O)(=O)C(F)(F)F)c5)cc4)CC3)c2)c(-c2ccc(Cl)cc2)n1C(C)C, the IC50 (second compound 0.0316 µM) is reported as > 10000 nM, the IC50 (second compound 0.1 µM) is reported as > 10000 nM and the IC50 (second compound 0.316 µM) is reported as > 10000 nM. The IC50 (second compound 1 µM) was > 10000 nM, the IC50 (second compound 3.16 µM) was > 10000 nM and the IC50 (second compound 10 µM) was > 10000 nM. It also gave a viability, T/C [1] of 109%, a viability, T/C [2] of 113% and a viability, T/C [3] of 93.3%. It also gave a viability, T/C [4] of 95%, a viability, T/C [5] of 106% and a viability, T/C [6] of 122%. It also gave a viability, T/C [7] of 101%, a viability, T/C [8] of 96.2% and a viability, T/C [9] of 94.5%. It also gave a viability, T/C [10] of 104%, a viability, T/C [11] of 93.3% and a viability, T/C [12] of 118%. The viability, T/C [13] was 97.5%, the viability, T/C [14] was 92.3% and the viability, T/C [15] was 106%. It also gave a viability, T/C [16] of 93.6%, a viability, T/C [17] of 99% and a viability, T/C [18] of 123%. The viability, T/C [19] was 104%, the viability, T/C [20] was 112% and the viability, T/C [21] was 114%. For the same molecule, the viability, T/C [22] was 92.9%, the viability, T/C [23] was 92.8% and the viability, T/C [24] was 109%. The viability, T/C [25] was 102%, the viability, T/C [26] was 98.3% and the viability, T/C [27] was 89.7%. It also gave a viability, T/C [28] of 104%, a viability, T/C [29] of 93.7% and a viability, T/C [30] of 105%. It also gave a viability, T/C [31] of 101%, a viability, T/C [32] of 91.5% and a viability, T/C [33] of 81.9%. For the same molecule, the viability, T/C [34] was 91.6%, the viability, T/C [35] was 99.5% and the viability, T/C [36] was 101%.
For `CCN1C(C(=O)NC23CCC(C(=O)O)(CC2)CC3)C(c2cccc(Cl)c2F)C2(C(=O)Nc3cc(Cl)ccc32)C12CCCCC2` (stereo unspecified) + Cc1c(S(C)(=O)=O)c(-c2cc(F)cc(N3CCN(c4ccc(NS(=O)(=O)c5ccc(NC(CCN6CCC(C(=O)OCCCP(=O)(O)O)CC6)CSc6ccccc6)c(S(=O)(=O)C(F)(F)F)c5)cc4)CC3)c2)c(-c2ccc(Cl)cc2)n1C(C)C, the IC50 (second compound 0.0316 µM) was > 3000 nM, the IC50 (second compound 0.1 µM) was > 3000 nM and the IC50 (second compound 0.316 µM) was > 3000 nM. The IC50 (second compound 1 µM) was > 3000 nM, the IC50 (second compound 3.16 µM) was > 3000 nM and the IC50 (second compound 10 µM) was > 3000 nM. The viability, T/C (second compound 0.0316 µM, first compound 0.00949 µM) was 92.4%, the viability, T/C (second compound 0.0316 µM, first compound 0.03 µM) was 99.1% and the viability, T/C (second compound 0.0316 µM, first compound 0.0949 µM) was 99.5%. It also gave a viability, T/C (second compound 0.0316 µM, first compound 0.3 µM) of 90%, a viability, T/C (second compound 0.0316 µM, first compound 0.949 µM) of 107% and a viability, T/C (second compound 0.0316 µM, first compound 3 µM) of 109%. It also gave a viability, T/C (second compound 0.1 µM, first compound 0.00949 µM) of 90.1%, a viability, T/C (second compound 0.1 µM, first compound 0.03 µM) of 95.8% and a viability, T/C (second compound 0.1 µM, first compound 0.0949 µM) of 94.8%. The viability, T/C (second compound 0.1 µM, first compound 0.3 µM) was 89.8%, the viability, T/C (second compound 0.1 µM, first compound 0.949 µM) was 101% and the viability, T/C (second compound 0.1 µM, first compound 3 µM) was 105%. The viability, T/C (second compound 0.316 µM, first compound 0.00949 µM) was 108%, the viability, T/C (second compound 0.316 µM, first compound 0.03 µM) was 99.9% and the viability, T/C (second compound 0.316 µM, first compound 0.0949 µM) was 94.8%. It also gave a viability, T/C (second compound 0.316 µM, first compound 0.3 µM) of 105%, a viability, T/C (second compound 0.316 µM, first compound 0.949 µM) of 102% and a viability, T/C (second compound 0.316 µM, first compound 3 µM) of 125%. For the same molecule, the viability, T/C (second compound 1 µM, first compound 0.00949 µM) was 109%, the viability, T/C (second compound 1 µM, first compound 0.03 µM) was 93.1% and the viability, T/C (second compound 1 µM, first compound 0.0949 µM) was 93.5%. For the same molecule, the viability, T/C (second compound 1 µM, first compound 0.3 µM) was 106%, the viability, T/C (second compound 1 µM, first compound 0.949 µM) was 112% and the viability, T/C (second compound 1 µM, first compound 3 µM) was 144%. The viability, T/C (second compound 3.16 µM, first compound 0.00949 µM) was 118%, the viability, T/C (second compound 3.16 µM, first compound 0.03 µM) was 95.2% and the viability, T/C (second compound 3.16 µM, first compound 0.0949 µM) was 88.3%. For the same molecule, the viability, T/C (second compound 3.16 µM, first compound 0.3 µM) was 101%, the viability, T/C (second compound 3.16 µM, first compound 0.949 µM) was 98.8% and the viability, T/C (second compound 3.16 µM, first compound 3 µM) was 144%. The viability, T/C (second compound 10 µM, first compound 0.00949 µM) was 113%, the viability, T/C (second compound 10 µM, first compound 0.03 µM) was 104% and the viability, T/C (second compound 10 µM, first compound 0.0949 µM) was 106%. The viability, T/C (second compound 10 µM, first compound 0.3 µM) was 86.7%, the viability, T/C (second compound 10 µM, first compound 0.949 µM) was 132% and the viability, T/C (second compound 10 µM, first compound 3 µM) was 146%.
